The values below come from ChEMBL document CHEMBL1155461, “Emerging targets in osteoporosis disease modification” (J Med Chem, 2010).

Molecules are shown by their SMILES.

Data set [1] relates to Rattus norvegicus. In words: Elevated PTH levels in ovariectomised rats as Cmax after 60 mg/kg oral dose. The class given is functional, organism-based. Set-up: dose 60 mg/kg.
The test system of data set [2] is Rattus norvegicus. Put plainly: Elevated PTH levels in ovariectomised rats as Cmax after 30 mg/kg oral dose. The class given is functional, organism-based. Set-up: dose 30 mg/kg.
Data set [3] has as its system Homo sapiens. In words: Induction of bone formation in postmenopausal woman assessed as increase in osteocalcin level at […] after 28 days relative to placebo control. It is filed as functional.
The subject of data set [4] is Homo sapiens. Put plainly: Induction of bone formation in postmenopausal woman assessed as increase in ALP level at […] after 28 days relative to placebo control. It is filed as functional.
In data set [5] the test system is Homo sapiens. Put plainly: Induction of bone formation in postmenopausal woman assessed as increase in PINP level at […] after 28 days relative to placebo control. The class given is functional.
The subject of data set [6] is Rattus norvegicus. In words: Elevated PTH levels in ovariectomised rats as Cmax after 120 mg/kg oral dose. On the set-up: dose 120 mg/kg. It is filed as functional, organism-based.
The nature of data set [7]: Selectivity for cathepsin K over cathepsin H.
Data set [8] can be described thus: Selectivity for cathepsin K over cathepsin B.
Data set [9] concerns Homo sapiens. Put plainly: Antiosteoporotic activity in patient with osteoporosis assessed as increase in lumbar spine bone mineral density at 50 mg/kg, po administered weekly for 24 months relative to placebo control. It is filed as functional.
Data set [10] in a line: Selectivity for cathepsin K over cathepsin V.
A short description of data set [11]: Selectivity for cathepsin K over cathepsin F.
A short description of data set [12]: Bioavailability in dog. It is filed as ADME, organism-based, Canis lupus familiaris. The following applies: in vivo.
Data set [13] in a line: Bioavailability in rat. The following applies: in vivo. It is filed as ADME, organism-based.
Data set [14] in a line: Selectivity for cathepsin K over cathepsin S.
Data set [15] is described as follows: Selectivity for cathepsin K over cathepsin L.
In data set [16] the test system is Homo sapiens. Put plainly: Antiosteoporotic activity in patient with osteoporosis assessed as increase in hip bone mineral density at 50 mg/kg, po administered weekly for 24 months relative to placebo control. The class given is functional, Bone of hip region.
The target in data set [17] is Prostaglandin E2 receptor EP3 subtype (Mus musculus, UniProt P30557). In words: Binding affinity to mouse EP3 receptor by competitive binding assay.
Data set [18] concerns Mus musculus. Put plainly: Induction of bone formation in mouse assessed as increase in bone mineral content at 300 ug/kg administered into dorsal muscle pouch relative to control. The class given is functional, Muscle tissue.
Data set [19] has as its system Rattus norvegicus. In words: Induction of bone formation in ovariectomized rat assessed as trabecular bone mineral content at 3 ug/kg, sc BID for 11 weeks (RVb = 200 mg/cm3). The class given is functional, Trabecula.
Data set [20] deals with Prostaglandin E2 receptor EP4 subtype (Mus musculus, UniProt P32240). In words: Agonist activity at mouse EP4 receptor expressed in CHO cells assessed as cAMP production. It is filed as functional, cell-based. In general terms: cAMP levels reflect the balance of adenylyl cyclase and phosphodiesterase activity.
For data set [21], the system named is Mus musculus. In words: Antiosteoporotic activity in mouse assessed as increase in bone volume at 10 mg/kg administered 3 times a week for 8 weeks. The class given is functional, Bone element.
Data set [22] concerns the target G-protein coupled receptor 55 (Homo sapiens, UniProt Q9Y2T6). In words: Binding affinity to GPR55.
For data set [23], the species on record is Mus musculus. Put plainly: Induction of bone formation in GPR55 knockout male mouse assessed as increase in tibia mass volume. The class given is functional.
The species entered for data set [24] is Mus musculus. Put plainly: Induction of bone formation in GPR55 knockout male mouse assessed as increase in femur mass volume. The class given is functional.
Data set [25] has as its system Mus musculus. Put plainly: Antiosteoporotic activity in mouse assessed as decrease in bone resorption-associated serum CTX-1 level at 10 mg/kg administered 3 times a week for 8 weeks. It is filed as functional. The following applies: 1344 h.
The next data set has as its system Osteoclast. Put plainly: Inhibition of bone resorption in human osteoclast assessed as decrease in CTX-1 level at 100 uM. The class given is functional.
The subject of data set [26] is MC3T3-E1. In words: Increase in octeocalcin mRNA expression in mouse MC3T3-E1 cells at 30 uM relative to control. The class given is functional.
Data set [27] has as its system MC3T3-E1. In words: Increase in ALP mRNA expression in mouse MC3T3-E1 cells at 30 uM relative to control. It is filed as functional.
Data set [28] concerns the target Extracellular calcium-sensing receptor (Bos taurus, UniProt P35384). Put plainly: Inhibition of CaSR in bovine parathyroid cells assessed as increase in PTH level. It is filed as cell-based.
The next data set relates to Rhesus monkey. In words: Antiosteoporotic activity in rhesus monkey assessed as decrease in bone resorption-associated urinary NTX-1 level at 15 mg/kg QD for 14 days. It is filed as functional, Macaca mulatta, Urine. Set-up: scale not given: the % may be the effect or the level left.
For data set [29], the system named is Homo sapiens. Put plainly: Antiosteoporotic activity in postmenopausal woman with osteoporosis assessed as increase in femoral neck bone mineral density at 200 mg/kg BID for 12 months. The class given is functional.
A short description of data set [30]: Half life in po dosed rat. The class given is ADME, organism-based. The conditions noted are these: in vivo.
Data set [31] in a line: Selectivity for integrin alphaVbeta3 over integrin alphaVbeta5.
Data set [32] in a line: Clearance in po dosed rat. The class given is ADME, organism-based. The conditions noted are these: in vivo.
The test system of data set [33] is Homo sapiens. Put plainly: Antiosteoporotic activity in postmenopausal woman with osteoporosis assessed as increase in hip bone mineral density at 200 mg/kg BID for 12 months. It is filed as functional, Bone of hip region.
Data set [34] has as its system Rattus norvegicus. In words: Antiosteoporotic activity in rat assessed as increase in distal femoral metaphysis bone mineral density at 10 mg/kg BID for 28 days relative to control. The class given is functional.
The nature of data set [35]: Clearance in po dosed dog. It is filed as ADME, organism-based, Canis lupus familiaris. The following applies: in vivo.
For data set [36], the system named is Rattus norvegicus. In words: Antiosteoporotic activity in rat assessed as increase in distal femoral metaphysis bone mineral density at 30 mg/kg BID for 28 days relative to control. The class given is functional.
Data set [37] concerns Homo sapiens. In words: Antiosteoporotic activity in postmenopausal woman with osteoporosis assessed as increase in lumbar spine bone mineral density at 200 mg/kg BID for 12 months. It is filed as functional.
The species entered for data set [38] is Homo sapiens. In words: Plasma protein binding in human. The conditions noted are these: read-out: PPB (converted).

Chain of Extracellular calcium-sensing receptor (P35384 whole entry): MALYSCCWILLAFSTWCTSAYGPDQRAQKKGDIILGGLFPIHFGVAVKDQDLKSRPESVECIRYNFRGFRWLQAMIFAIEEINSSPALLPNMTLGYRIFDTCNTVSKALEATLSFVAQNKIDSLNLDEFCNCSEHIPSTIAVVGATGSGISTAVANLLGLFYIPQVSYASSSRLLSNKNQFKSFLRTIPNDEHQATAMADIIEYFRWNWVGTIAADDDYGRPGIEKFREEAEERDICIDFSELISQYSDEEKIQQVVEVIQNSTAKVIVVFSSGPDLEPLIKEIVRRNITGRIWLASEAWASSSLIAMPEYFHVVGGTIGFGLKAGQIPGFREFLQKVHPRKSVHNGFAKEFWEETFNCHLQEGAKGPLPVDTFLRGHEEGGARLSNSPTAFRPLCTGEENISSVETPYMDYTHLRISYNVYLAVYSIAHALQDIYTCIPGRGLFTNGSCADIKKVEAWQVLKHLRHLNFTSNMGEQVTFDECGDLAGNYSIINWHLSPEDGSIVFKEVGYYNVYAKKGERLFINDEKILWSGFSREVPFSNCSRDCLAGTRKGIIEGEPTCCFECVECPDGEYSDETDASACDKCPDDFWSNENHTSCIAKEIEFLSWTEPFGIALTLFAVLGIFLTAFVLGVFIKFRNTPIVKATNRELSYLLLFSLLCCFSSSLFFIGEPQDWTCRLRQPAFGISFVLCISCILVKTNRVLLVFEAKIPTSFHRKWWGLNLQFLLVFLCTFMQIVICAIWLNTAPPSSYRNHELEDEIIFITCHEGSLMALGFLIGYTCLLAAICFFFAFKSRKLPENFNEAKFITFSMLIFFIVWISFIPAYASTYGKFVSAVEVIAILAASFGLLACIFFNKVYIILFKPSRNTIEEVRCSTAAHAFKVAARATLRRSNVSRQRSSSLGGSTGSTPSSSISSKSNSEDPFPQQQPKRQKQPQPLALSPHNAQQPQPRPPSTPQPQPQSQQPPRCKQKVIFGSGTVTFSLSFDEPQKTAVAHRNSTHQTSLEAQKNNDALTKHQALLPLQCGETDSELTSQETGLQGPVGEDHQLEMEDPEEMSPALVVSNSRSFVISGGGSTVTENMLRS
Chain of Prostaglandin E2 receptor EP3 subtype (P30557 whole entry): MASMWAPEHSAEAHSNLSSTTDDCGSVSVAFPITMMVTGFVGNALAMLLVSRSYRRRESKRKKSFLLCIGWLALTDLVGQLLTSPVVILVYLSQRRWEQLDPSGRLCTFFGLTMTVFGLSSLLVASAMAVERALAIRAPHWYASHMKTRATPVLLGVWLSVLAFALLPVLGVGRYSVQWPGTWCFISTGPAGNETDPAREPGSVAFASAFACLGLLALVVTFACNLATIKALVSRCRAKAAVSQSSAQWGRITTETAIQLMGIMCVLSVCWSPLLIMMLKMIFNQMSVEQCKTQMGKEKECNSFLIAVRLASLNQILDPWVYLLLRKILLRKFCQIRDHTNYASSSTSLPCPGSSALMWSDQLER
Chain of G-protein coupled receptor 55 (Q9Y2T6 whole entry): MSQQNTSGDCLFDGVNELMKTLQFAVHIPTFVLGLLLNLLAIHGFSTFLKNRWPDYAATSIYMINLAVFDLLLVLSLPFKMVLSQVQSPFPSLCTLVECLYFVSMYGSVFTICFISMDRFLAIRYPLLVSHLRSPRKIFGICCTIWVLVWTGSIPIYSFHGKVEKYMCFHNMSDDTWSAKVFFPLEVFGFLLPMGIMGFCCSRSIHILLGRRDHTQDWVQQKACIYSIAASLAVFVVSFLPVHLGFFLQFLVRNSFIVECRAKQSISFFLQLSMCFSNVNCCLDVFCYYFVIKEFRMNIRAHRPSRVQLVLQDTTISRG
Chain of Prostaglandin E2 receptor EP4 subtype (P32240 whole entry): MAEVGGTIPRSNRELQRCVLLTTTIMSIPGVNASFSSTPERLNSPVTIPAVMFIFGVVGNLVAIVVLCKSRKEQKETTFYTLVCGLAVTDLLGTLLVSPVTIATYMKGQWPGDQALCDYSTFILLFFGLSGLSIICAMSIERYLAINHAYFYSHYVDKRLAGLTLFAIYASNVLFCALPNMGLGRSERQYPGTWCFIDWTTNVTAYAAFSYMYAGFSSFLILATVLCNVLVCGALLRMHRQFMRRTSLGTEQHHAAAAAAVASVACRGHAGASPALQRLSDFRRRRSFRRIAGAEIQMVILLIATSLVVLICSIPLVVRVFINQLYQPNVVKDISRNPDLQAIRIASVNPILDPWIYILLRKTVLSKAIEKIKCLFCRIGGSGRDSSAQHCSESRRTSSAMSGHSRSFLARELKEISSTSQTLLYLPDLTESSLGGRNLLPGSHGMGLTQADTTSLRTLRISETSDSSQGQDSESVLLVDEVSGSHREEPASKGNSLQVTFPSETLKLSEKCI

With `CC(C)(CC1Cc2ccccc2C1)NC[C@@H](O)COc1cc(CCC(=O)O)cc(F)c1F.Cl` [RONACALERET HYDROCHLORIDE], the Cmax PTH was 66 pM in the data set with Rattus norvegicus [1], 33 pM in the data set on Rattus norvegicus [2] and 68 pM in the data set on Rattus norvegicus [6]. For the same compound, the Activity is 63% in the data set on Homo sapiens [3], 35% in the data set with Homo sapiens [4] and 79% in the data set with Homo sapiens [5].

In the case of `CC(C)(F)C[C@H](N[C@@H](c1ccc(-c2ccc(S(C)(=O)=O)cc2)cc1)C(F)(F)F)C(=O)NC1(C#N)CC1` [ODANACATIB], the Selectivity ratio was above 50000 in [7]; 5170 in data set [8]; 3810 in data set [10]; 3980 in data set [11]; 300 in [14]; 15000 in [15]. The values for the Activity in the data set on Homo sapiens [9] and in the data set with Homo sapiens [16] were 5.5% and 3.2%, respectively. Also, the bioavailability (commonly dose-corrected exposure relative to a reference, in per cent) in data set [12] is at most 100%; in data set [13] it was at most 38%.

As for `COCc1cccc(C[C@H](O)/C=C/[C@H]2[C@H](O)CC(=O)[C@@H]2CCSCCCC(=O)OC)c1` [RIVENPROST], affinity in [17] was put at a Ki of 56 nM. The “fold change (FC)” value in the data set on Mus musculus [18] amounted to 3. Further, the Activity in the data set with Rattus norvegicus [19] worked out at 378 mg/cm3. Moreover, the concentration for a half-maximal effect (EC50) (usually the midpoint of the concentration-response curve) in data set [20] was found to be 1.6 nM.

For the compound `C=C(C)[C@@H]1CCC(C)=C[C@H]1c1c(O)cc(CCCCC)cc1O` [CANNABIDIOL], the Activity amounted to 10% in the data set on Mus musculus [21], 136% in the data set listed under Mus musculus [23] and 149% in the data set listed under Mus musculus [24]. Besides, the EC50 in data set [22] was found to be 445 nM. In the data set on Mus musculus [25], the inhibition in vivo (commonly the percentage by which the read-out fell short of the control) at 10 mg/kg turned out to be 18%.

For `CC(C)C[C@H](NC(=O)c1ccc(C(C)(C)C)cc1)C(=O)N1CC[C@@H]2[C@H]1C(=O)CN2C(=O)c1ccccc1`, the results for the Selectivity ratio in data set [8], in [14] and in [15] were above 990, above 446 and above 347, respectively. Moreover, the inhibition (in general, the share of the control response that was lost under treatment) at 100 µM with Osteoclast came out at 75%.

Turning to `C/C(=C\Cc1c(O)cc2occ(-c3ccc(O)cc3)c(=O)c2c1O)CO` [GLABRISOFLAVONE], the Activity in the data set on MC3T3-E1 [26] and with MC3T3-E1 [27] was 58% in each case.

Take `CC(C)(Cc1ccc2ccccc2c1)NC[C@@H](O)COc1cccc(Cl)c1C#N`: the half-maximal effective concentration (EC50) in data set [28] turned out to be 41 nM.

For the compound `COc1ccc([C@H](CC(=O)O)N2CCN(CCCc3ccc4c(n3)NCCC4)C2=O)cn1`, the Activity in the data set with Rhesus monkey is recorded as 39%; in the data set with Homo sapiens [29], 2.4%; in the data set on Homo sapiens [33], 1.7%; in the data set on Rattus norvegicus [34] it was 8.9%; in the data set on Rattus norvegicus [36], 12.8%; in the data set with Homo sapiens [37], 3.5%. In addition, the half-life (as a rule, the time in which the quantity being followed falls by half) in data set [30] was 3 h. Moreover, the Selectivity ratio in data set [31] worked out at 125. In addition, the apparent clearance CL/F (commonly clearance divided by bioavailability, as obtained after extravascular dosing) came out at 47 mL/min/kg in [32] and 6.4 mL/min/kg in data set [35]. Further, the fraction unbound in the data set listed under Homo sapiens [38] is 0.12.
